Test results reported in patent US10947213B1 (Merck Patent GmbH, priority 2015, dated 2021).
Where a name gives a salt, the structure may show the parent alone.

These compounds were tested against T1, TLR7/NFKb HEK cells (Homo sapiens, UniProt Q9NYK1) (assay: HEK Cell Assay (TLR7/NFKb reporter, Steady-Glo luciferase readout)). Conditions: 30 min compound preincubation, then R*48 agonist for 5 hours, read-out: Potency.
T1 construct: expressed in transfected cells; host or cells: HEK cells (TLR7/NFKb reporter line)
T1 sequence (Q9NYK1 27-1049): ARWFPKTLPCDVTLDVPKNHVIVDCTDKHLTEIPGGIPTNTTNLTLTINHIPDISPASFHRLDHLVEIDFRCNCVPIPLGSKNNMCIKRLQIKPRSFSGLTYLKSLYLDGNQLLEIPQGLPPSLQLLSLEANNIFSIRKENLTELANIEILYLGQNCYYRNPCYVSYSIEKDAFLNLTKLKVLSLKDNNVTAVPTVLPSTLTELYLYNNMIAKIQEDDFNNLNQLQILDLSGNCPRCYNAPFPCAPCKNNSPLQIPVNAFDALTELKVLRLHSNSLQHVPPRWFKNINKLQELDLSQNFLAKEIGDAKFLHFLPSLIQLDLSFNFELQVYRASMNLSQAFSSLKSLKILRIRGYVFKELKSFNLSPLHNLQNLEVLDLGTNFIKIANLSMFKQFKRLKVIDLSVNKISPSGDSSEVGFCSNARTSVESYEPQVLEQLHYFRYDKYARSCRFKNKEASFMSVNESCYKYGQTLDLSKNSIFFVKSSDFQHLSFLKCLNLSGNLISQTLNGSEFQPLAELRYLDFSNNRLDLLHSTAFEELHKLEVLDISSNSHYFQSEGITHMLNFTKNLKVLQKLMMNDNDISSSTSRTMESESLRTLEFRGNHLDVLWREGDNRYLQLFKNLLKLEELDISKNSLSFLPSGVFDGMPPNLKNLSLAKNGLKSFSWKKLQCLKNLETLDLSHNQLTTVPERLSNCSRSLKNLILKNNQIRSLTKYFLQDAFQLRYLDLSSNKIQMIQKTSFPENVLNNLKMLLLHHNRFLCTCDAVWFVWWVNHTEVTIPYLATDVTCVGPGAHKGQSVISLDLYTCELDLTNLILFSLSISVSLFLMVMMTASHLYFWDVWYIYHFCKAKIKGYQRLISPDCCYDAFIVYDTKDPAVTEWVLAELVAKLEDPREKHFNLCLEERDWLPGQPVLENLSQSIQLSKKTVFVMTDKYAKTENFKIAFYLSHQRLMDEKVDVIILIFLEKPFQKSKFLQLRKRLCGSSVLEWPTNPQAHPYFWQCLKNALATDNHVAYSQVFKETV
Type: cell-based
How it was run: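 Steady-Glo luminescence after 5 h stimulation with R*48 agonist, following 30 min compound preincubation. Assay run in HEK cells carrying a TLR7/NFKb luciferase reporter, plated at 5000 cells/well and grown 24 h at 37° C (10% CO2) before treatment.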

SMILES | IC50 [µM]
C[C@H]1C[C@@H](NC2CCNC2=O)CN(c2ccnc3nccnc23)C1 (stereo partly drawn) [Compound 127, 3-[[(3R,5S)-5-methyl-1-[pyrido[2,3-b]pyrazin-8-yl]piperidin-3-yl]amino]pyrrolidin-2-one] | > 10
C[C@H]1C[C@@H](NC(=O)[C@H](C)N)CN(c2ccc(C#N)c3nccnc23)C1 [Compound 25, (S)-2-amino-N-((3R,5S)-1-(8-cyanoquinoxalin-5-yl)-5-methylpiperidin-3-yl)propanamide] | < 1
C[C@H]1C[C@@H](NC2CCN(C)C2=O)CN(c2ccc(Cl)c3ncccc23)C1 (single isomer, unassigned) [Compound 261] | < 1
C[C@H]1C[C@@H](NC(=O)CN)CN(c2ccc(C#N)c3nccnc23)C1 [Compound 35, 2-amino-N-((3R,5S)-1-(8-cyanoquinoxalin-5-yl)-5-methylpiperidin-3-yl)acetamide hydrochloride] | < 1
C[C@H]1C[C@@H](NC(=O)CC(C)(C)C)CN(c2ccc(C#N)c3nccnc23)C1 [Compound 40, N-((3R,5S)-1-(8-cyanoquinoxalin-5-yl)-5-methylpiperidin-3-yl)-3,3-dimethylbutanamide] | < 1
C[C@H]1C[C@@H](NC(=O)CC2CNC2)CN(c2ccc(C(F)(F)F)c3ncccc23)C1 [Compound 288, 2-(azetidin-3-yl)-N-[(3R,5S)-5-methyl-1-[8-(trifluoromethyl)quinolin-5-yl]piperidin-3-yl]acetamide] | < 1
CC1CC(C(=O)NC2CCCN(C)C2)CN(c2ccc(C#N)c3nccnc23)C1 (stereo not drawn) [Compound 543, cis-1-(8-cyanoquinoxalin-5-yl)-5-methyl-N-(1-methyl-3-piperidyl) piperidine-3-carboxamide] | < 1
N#Cc1ccc(N2CC(N)CC(C(F)(F)F)C2)c2cccnc12 (single isomer, unassigned) [Compound 73] | < 1
C[C@H]1C[C@@H](N)CN(c2ccc(C(F)(F)F)c3nccnc23)C1 [Compound 77, (3R,5S)-5-methyl-1-[8-(trifluoromethyl)quinoxalin-5-yl]piperidin-3-amine] | < 1
C[C@H]1C[C@@H](NC(=O)C(N)C(F)(F)F)CN(c2c(F)cc(C#N)c3nccnc23)C1 (single isomer, unassigned) [Compound 345] | > 10
C[C@H]1C[C@@H](NC(=O)CC(C)(C)CN)CN(c2ccc(C(F)F)c3ncccc23)C1 [Compound 315, 4-amino-N-[(3R,5S)-1-[8-(difluoromethyl)quinolin-5-yl]-5-methylpiperidin-3-yl]-3,3-dimethylbutanamide] | < 1
C[C@H]1C[C@@H](NC(=O)C(N)C(F)(F)F)CN(c2ccc(C(N)=O)c3ncccc23)C1 (single isomer, unassigned) [Compound 185] | > 10
C[C@H]1C[C@@H](NC(=O)CN2CCOCC2)CN(c2ccc(C(F)(F)F)c3nccnc23)C1 [Compound 249, N-[(3R,5S)-5-methyl-1-[8-(trifluoromethyl)quinoxalin-5-yl]piperidin-3-yl]-2-(morpholin-4-yl)acetamide] | < 1
C[C@H]1C[C@@H](NC(=O)CO)CN(c2ccc(Cl)c3ncccc23)C1 [Compound 263, N-[(3R,5S)-1-(8-chloroquinolin-5-yl)-5-methylpiperidin-3-yl]-2-hydroxyacetamide] | < 1
C[C@H]1C[C@@H](NC(=O)[C@@H](C)N)CN(c2ccnc3nccnc23)C1 [Compound 26, (R)-2-amino-N-((3R,5S)-5-methyl-1-(pyrido[2,3-b]pyrazin-8-yl)piperidin-3-yl)propanamide] | 1 to 10
CC(C)(C(=O)N[C@@H]1C[C@H](C(F)(F)F)CN(c2ccc(C#N)c3ncccc23)C1)N1CCCCC1 [Compound 576, N-[(3R,5S)-1-(8-Cyano-quinolin-5-yl)-5-trifluoromethyl-piperidin-3-yl]-2-piperidin-1-yl-isobutyramide] | < 1
COCCN[C@H]1C[C@@H](C(F)(F)F)CN(c2ccc(C#N)c3nccnc23)C1 (relative stereo) [Compound 221, cis-8-[3-[(2-methoxyethyl)amino]-5-(trifluoromethyl)piperidin-1-yl]quinoxaline-5-carbonitrile] | 1 to 10

SMILES | IC50 [µM]
C[C@H]1C[C@@H](N)CN(c2c(F)cc(C#N)c3nccnc23)C1 [Compound 342, 8-[(3R,5S)-3-amino-5-methylpiperidin-1-yl]-7-fluoroquinoxaline-5-carbonitrile] | 1 to 10
C[C@H]1C[C@@H](NC(=O)C2CC(F)(F)C2)CN(c2ccc(C(F)F)c3nccnc23)C1 [Compound 329, N-[(3R,5S)-1-[8-(difluoromethyl)quinoxalin-5-yl]-5-methylpiperidin-3-yl]-3,3-difluorocyclobutane-1-carboxamide] | 1 to 10
FC(F)(F)CCN[C@H]1C[C@@H](C(F)(F)F)CN(c2ccnc3nccnc23)C1 (relative stereo) [Compound 96, cis-1-[pyrido[2,3-b]pyrazin-8-yl]-5-(trifluoromethyl)-N-(3,3,3-trifluoropropyl)piperidin-3-amine hydrochloride] | > 10
C[C@@H]1CN(c2ccc(C#N)c3ncncc23)C[C@H](C)O1 [Compound 393, cis-5-(2,6-Dimethyl-morpholin-4-yl)-quinazoline-8-carbonitrile] | 1 to 10
C[C@H]1C[C@@H](NC(=O)C(O)C2CC2)CN(c2ccc(C(F)(F)F)c3ncccc23)C1 (single isomer, unassigned) [Compound 520] | < 1
CN(C(=O)CN1CCOCC1)[C@H]1C[C@@H](C2CC2)CN(c2ccc(C(F)(F)F)c3ncccc23)C1 (relative stereo) [Compound 337, cis-N-[5-cyclopropyl-1-[8-(trifluoromethyl)quinolin-5-yl]piperidin-3-yl]-N-methyl-2-(morpholin-4-yl)acetamide] | > 10
c1ccc2c(N3CCC(CNCCN4CCOCC4)CC3)ccnc2c1 [Compound 7, 2-morpholino-N-((1-(quinolin-4-yl)piperidin-4-yl)methyl)ethanamine] | > 10
C[C@@H]1CN(c2ccnc3nccnc23)C[C@H](CN2CCC(N3CCOCC3)CC2)O1 [Compound 60, (2R,6S)-2-methyl-6-((4-morpholinopiperidin-1-yl)methyl)-4-(pyrido[2,3-b]pyrazin-8-yl)morpholine] | 1 to 10
CCN(CC)CCNCC1CCN(c2c(C)c(C)nc3ccc(F)cc23)CC1 [Compound 385, N,N-Diethyl-N′-[1-(6-fluoro-2,3-dimethyl-quinolin-4-yl)-piperidin-4-ylmethyl]-ethane-1,2-diamine] | 1 to 10
CC(C)(O)CC(=O)N[C@@H]1C[C@H](C(F)(F)F)CN(c2ccc(C#N)c3ncccc23)C1 (racemic) [Compound 481] | 1 to 10
C[C@H]1C[C@@H](N(C)C(=O)CC(C)(C)N)CN(c2ccc(C(F)(F)F)c3ncccc23)C1 [Compound 465, 3-Amino-3,N-dimethyl-N-[(3R,5S)-5-methyl-1-(8-trifluoromethyl-quinolin-5-yl)-piperidin-3-yl]-butyramide] | < 1
CC(C)[C@H](N)C(=O)N[C@@H]1C[C@H](C)CN(c2ccc(C#N)c3nccnc23)C1 [Compound 103, (2S)-2-amino-N-[(3R,5S)-1-(8-cyanoquinoxalin-5-yl)-5-methylpiperidin-3-yl]-3-methylbutanamide] | < 1
CNCC(=O)N[C@@H]1C[C@H](C)CN(c2ccnc3nccnc23)C1 [Compound 29, N-((3R,5S)-5-methyl-1-(pyrido[2,3-b]pyrazin-8-yl)piperidin-3-yl)-2-(methylamino)acetamide] | > 10
C[C@H]1C[C@@H](NC(=O)CC2CCN(C)CC2)CN(c2ccc(C(F)F)c3nccnc23)C1 [Compound 328, N-[(3R,5S)-1-[8-(difluoromethyl)quinoxalin-5-yl]-5-methylpiperidin-3-yl]-2-(1-methylpiperidin-4-yl)acetamide] | < 1
N#Cc1ccc(N2CC(NC(=O)CCC(=O)N3CCC3)CC(C(F)(F)F)C2)c2cccnc12 (single isomer, unassigned) [Compound 495] | 1 to 10
C[C@H]1C[C@@H](NC(=O)CNS(C)(=O)=O)CN(c2ccnc3nccnc23)C1 [Compound 141, 2-methanesulfonamido-N-[(3R,5S)-5-methyl-1-[pyrido[2,3-b]pyrazin-8-yl]piperidin-3-yl]acetamide] | > 10
